The values that follow come from article PMC7898822, “RNA‐PROTACs: Degraders of RNA‐Binding Proteins” (Angewandte Chemie (International Ed. in English), 2020).

This assay relates to Lin28A. The assay is described as follows: Pull-down RNA ELISA, gymnosis, anti-Lin28A. The class given is cell-based, human. As to conditions: 3'-biotin conjugates, K562 cells, 2 µM, 24 h; streptavidin plate; vs mock or FUS antibody. The text has this:
Humans express two paralogs of the protein, LIN28 (Lin28A) and LIN28B (Lin28B), that play key roles in development, metabolism, and pluripotency. ^[34] Lin28 proteins are abundantly expressed during embryonic development, as well as in several tumors and tumor‐derived cell lines. ^[35] […] In order to confirm that RNA‐PROTACs bind to endogenous Lin28 in cells, we performed a pull‐down RNA ELISA assay that we have previously described. ^[36] Thus, we conjugated a biotin group to the 3′ ends of ORN3P1 and ORN7P1 and added these reagents separately on to myelogenous leukemia K562 cells. We incubated lysates from treated cells on streptavidin‐coated plates so as to capture the RNA‐PROTACs present in the cell lysates. We then assayed for the presence of Lin28A in the plates using an anti‐Lin28A antibody and a negative control anti‐FUS antibody. […]
The protein extracts (12-17 µg) were run on a 4-20% SDS-PAGE and transferred on a nitrocellulose blotting membrane 0.22 µm (GE Healthcare) using the Trans-Blot transfer device (Biorad). […] The proteins were detected using the anti-lin28a antibody (Cell Signaling technology, D9F5), anti-lin28b antibody (Cell Signaling technology, 4196S), anti-rbfox1 (NovusBio, NBP2-13169SS), at 1:1000 and anti-hrnp c antibody […]
on a ChemiDoc MP imager (Biorad). The intensity of the signal was quantified using the ImageJ-Fiji software. […]
On the technique in general: ELISA stands for enzyme-linked immunosorbent assay.

In the case of `CC[C@H](C)[C@H](NC(=O)[C@H](Cc1ccc(O)cc1)NC(=O)[C@@H]1C[C@@H](O)CN1C(=O)[C@H](C)NC(=O)[C@H](CC(C)C)NC(=O)CCCCCNC(=O)[C@@H](N)CSC1CC(=O)N(CCOP(=O)(S)OC[C@H]2O[C@@H](n3cnc4c(N)ncnc43)[C@H](OCCOC)[C@@H]2OP(=O)(S)OC[C@H]2O[C@@H](n3cnc4c(=O)[nH]c(N)nc43)[C@H](OCCOC)[C@@H]2OP(=O)(S)OC[C@H]2O[C@@H](n3cnc4c(=O)[nH]c(N)nc43)[C@H](OCCOC)[C@@H]2OP(=O)(S)OC[C@H]2O[C@@H](n3cnc4c(N)ncnc43)[C@H](OCCOC)[C@@H]2OP(=O)(S)OC[C@H]2O[C@@H](n3cnc4c(=O)[nH]c(N)nc43)[C@H](OCCOC)[C@@H]2OP(=O)(S)OC[C@H]2O[C@@H](n3cnc4c(N)ncnc43)[C@H](OCCOC)[C@@H]2OP(=O)(S)OC[C@H]2O[C@@H](n3cc(C)c(=O)[nH]c3=O)[C@H](OCCOC)[C@@H]2O)C1=O)C(=O)O` (stereo partly shown) [ORN3P1], the Lin28A pull-down signal entry was “strong signal for Lin28A protein”.
